Reference: US20160318856A1, “Substituted Urea eIF2alpha Kinase Activators” (THE BRIGHAM AND WOMEN'S HOSPITAL, INC., priority 2013, published 2016)
Where two headings read alike, the source gives them in different places.

Key:
[1] = tested on: CRL-2813 human melanoma cancer cells; assay: cell proliferation (SRB) assay, CRL-2813; assay type: cell-based; conditions: read-out: IC50
Description: Cells were seeded in 96-well plates and maintained for 5 days in the presence of 0.5 to 20 μM of individual compound, and cell proliferation was measured by the sulforhodamine B (SRB) assay as described previously (see, for example, Palakurthi, S. S. et al. Cancer Research 2000, 60(11), 2919-2925). Briefly, at the end of a 5-day treatment, cells were fixed in 10% cold trichloroacetic acid. Cell number was estimated by measuring the remaining bound dye of sulforhodamine B after washing. The percentage of growth was calculated by using the equation: 100×[(T−T0)/(C−T0)], where T and C represent the absorbance in treated and control cultures at Day 5, and T0 at time zero, respectively. If T is less than T0, cell death has occurred and can be calculated from 100×[(T−T0)/T0].

[2] = tested on: eIF2α phosphorylation (eIF2•GTP•Met-tRNAi ternary complex; HRI activation); assay: surrogate dual luciferase eIF2α phosphorylation (ternary complex) assay; assay type: cell-based, human; conditions: for maximal fold induction: Homo sapiens, read-out: Emax (F/R)
From the text: The dual luciferase expression vector and other plasmids used for these studies were previously described (see, for example, Ziegeler, G. et al. Journal of Biological Chemistry 2010, 285(20), 15408-19). The ternary complex assay, surrogate of eIF2α phosphorylation, has been described elsewhere (see, for example, Chen, T. et al. Nature Chemical Biology 2011, 7(9), 610-6). Briefly, the pBISA vector, which contains seven copies of the tetracycline-regulated transactivator response element (TRE), is flanked on both sides by minimal human cytomegalovirus (CMV) minimal promoters allowing bi-directional transcription and two MCSs (multiple cloning sites). Firefly and renilla luciferases were subcloned into MCS-I and MCS-II, respectively. This plasmid, designated pBISA-DL, transcribes two mRNAs that contain the 90 nucleotide plasmid derived 5′UTR (same sequence in both mRNAs), and the ORF encoding either firefly or renilla luciferase followed by a polyadenylation sequence. This plasmid was further modified by inserting the 5′UTR of ATF-4 mRNA into MCS-I in front of the firefly luciferase mRNA. Transcription from this unit generates an mRNA that contains the firefly luciferase ORF preceded by a 5′UTR composed of 90 nucleotides derived from the plasmid and 267 nucleotides derived from the 5′UTR of ATF-4 mRNA. Transcription from the other unit generates an mRNA that contains the renilla luciferase ORF proceeded only by the 90-nucleotide plasmid-derived sequence in the 5′UTR (pBISA-DL (ATF-4)) (see, for example, Chen, T. et al. Nature Chemical Biology 2011, 7(9), 610-6).
Cells expressing firefly and renilla luciferases were assayed with a dual glow luciferase assay kit, per manufacturer's instruction (Promega Inc., Madison, Wis.). The data calculations were carried out as the ratio of firefly to renilla luciferase signal.
A library of 1900 urea compounds was screened in the surrogate dual luciferase eIF2α phosphorylation (ternary complex) assay. This library was originally assembled and screened for inhibition of sEH by Hammock's group at UC-Davis (see, for example, Chen, T. et al. Nature Chem Biol 2011, 7, 610-616; Ziegeler, G et al. J Biol Chem 2010, 285, 15408-15419). We developed this assay in order to identify compounds that activate HRI, taking advantage of the fact that activated HRI phosphorylates eIF2α thereby reducing the amount of the eIF2•GTP•Met-tRNAi ternary complex that results in inhibition of translation of many mRNAs but paradoxically increases translation of some mRNAs that contain multiple upstream ORF (uORF) in their 5′ untranslated regions (UTRs). In our assay, firefly (F) luciferase mRNA is fused to 5′UTR of activating transcription factor 4 (ATF-4) mRNA that has multiple uORFs while renilla (R) luciferase mRNA is fused to a 5′UTR lacking any uORFs. Compounds that reduce the amount of the ternary complex, such as those activating HRI, would increase F luciferase expression while decreasing the R luciferase expression, resulting in an increased F/R luciferase ratio. To calculate the activity scores, the F/R ratios for every compound-treated wells were normalized to vehicle-treated (DMSO) wells that was arbitrarily set at 1 (F/R=1).

[3] = cell proliferation assay (SRB, 5 days), cell line not named in Table 1, values equal CRL-2813 values of Tables 5/8
[4] = ternary complex assay, F/R normalized to vehicle (DMSO = 1)
[5] = Homo sapiens, CRL2813, 120 h, cell proliferation assay (SRB, 5 days), cell line not named in Table 1, values equal CRL-2813 values of Tables 5/8
[6] = Homo sapiens, CRL2813, cell proliferation assay, Table 3, cell line not named, values equal CRL-2813 values of Table 8
[7] = surrogate eIF2α phosphorylation assay, Table 3
[8] = cell proliferation assay, Table 2, cell line not named

Row | IC50 [1, 3] [µM] | Emax (F/R) [2, 4] [F/R] | Structure (SMILES) | other results
1 | 20 ± 2.1 | 0.98 | O=C(Nc1ccc(F)cc1)NC1CCC(Oc2ccc(F)cc2)CC1 (centres unmarked) [Compound I-1p] | 
2 | > 20 | 1.65 | O=C(Nc1ccc(Cl)cc1)NC1CCC(Oc2ccc(F)cc2)CC1 (centres unmarked) [Compound I-2p] | 
3 | 6.2 ± 0.3 | 9.52 | O=C(Nc1cccc(Br)c1)NC1CCC(Oc2ccc(F)cc2)CC1 (centres unmarked) [Compound I-3m] | 
4 | 7.7 ± 0.1 | 5.23 | O=C(Nc1ccccc1Br)NC1CCC(Oc2ccc(F)cc2)CC1 (centres unmarked) [Compound I-3o] | 
5 | > 20 | 1.29 | O=C(Nc1ccc(Br)cc1)NC1CCC(Oc2ccc(F)cc2)CC1 (centres unmarked) [Compound I-3p] | 
6 | 5.2 ± 0.2 | 10.32 | O=C(Nc1cccc(I)c1)NC1CCC(Oc2ccc(F)cc2)CC1 (centres unmarked) [Compound I-4m] | 
7 | 10.2 ± 1.5 | 3.77 | O=C(Nc1ccc(I)cc1)NC1CCC(Oc2ccc(F)cc2)CC1 (centres unmarked) [Compound I-4p] | 
8 | > 20 | 1.56 | O=C(Nc1ccccc1C(F)(F)F)NC1CCC(Oc2ccc(F)cc2)CC1 (centres unmarked) [Compound I-5o] | 
9 | > 20 | 1.41 | O=C(Nc1ccccc1OC(F)(F)F)NC1CCC(Oc2ccc(F)cc2)CC1 (centres unmarked) [Compound I-6o] | 
10 | 14.4 ± 0.5 | 4.73 | Cc1cccc(NC(=O)NC2CCC(Oc3ccc(F)cc3)CC2)c1 (centres unmarked) [Compound I-7m] | 
11 | > 20 | 0.98 | Cc1ccccc1NC(=O)NC1CCC(Oc2ccc(F)cc2)CC1 (centres unmarked) [Compound I-7o] | 
12 | > 20 | 1.05 | Cc1ccc(NC(=O)NC2CCC(Oc3ccc(F)cc3)CC2)cc1 (centres unmarked) [Compound I-7p] | 
13 | > 20 | 0.83 | COc1ccc(NC(=O)NC2CCC(Oc3ccc(F)cc3)CC2)cc1 (centres unmarked) [Compound I-8p] | 
14 | 2.3 ± 0.1 | 9.00 | O=C(Nc1ccc([N+](=O)[O-])cc1)NC1CCC(Oc2ccc(F)cc2)CC1 (centres unmarked) [Compound I-9p] | 
15 | > 20 | 0.92 | CSc1ccccc1NC(=O)NC1CCC(Oc2ccc(F)cc2)CC1 (centres unmarked) [Compound I-10o] | 
16 | > 20 | 1.07 | CSc1ccc(NC(=O)NC2CCC(Oc3ccc(F)cc3)CC2)cc1 (centres unmarked) [Compound I-10p] | 
17 | 9.2 ± 0.8 | 6.83 | COC(=O)c1cccc(NC(=O)NC2CCC(Oc3ccc(F)cc3)CC2)c1 (centres unmarked) [Compound I-11m] | 
18 | > 20 | 0.88 | O=C(Nc1cccc(C(=O)O)c1)NC1CCC(Oc2ccc(F)cc2)CC1 (centres unmarked) [Compound I-12m] | 
19 | 11.6 ± 1.8 | 3.49 | O=C(Nc1ccc(C(=O)O)cc1)NC1CCC(Oc2ccc(F)cc2)CC1 (centres unmarked) [Compound I-12p] | 

Further lines, the compound ahead of its results:

Row | Structure (SMILES) | IC50 [1, 3] [µM] | Emax (F/R) [2, 4] [F/R] | other results
20 | O=C(Nc1cccc(F)c1)NC1CCC(Oc2ccc(F)cc2)CC1 (centres unmarked) [Compound I-1m] | 8.3 ± 0.9 | 6.54 | 
21 | O=C(Nc1ccccc1F)NC1CCC(Oc2ccc(F)cc2)CC1 (centres unmarked) [Compound I-1o] | 17.5 ± 1.1 | 2.10 | 
22 | O=C(Nc1cccc(Cl)c1)NC1CCC(Oc2ccc(F)cc2)CC1 (centres unmarked) [Compound I-2m] | 5.9 ± 0.6 | 8.76 | 
23 | O=C(Nc1ccccc1Cl)NC1CCC(Oc2ccc(F)cc2)CC1 (centres unmarked) [Compound I-2o] | 9.1 ± 1 | 5.37 | 
24 | O=C(Nc1ccccc1I)NC1CCC(Oc2ccc(F)cc2)CC1 (centres unmarked) [Compound I-4o] | > 20 | 3.25 | 
25 | O=C(Nc1cccc(C(F)(F)F)c1)NC1CCC(Oc2ccc(F)cc2)CC1 (centres unmarked) [Compound I-5m] |  |  | IC50 [1, 5]: 2.6 ± 0.3 µM; IC50 [1, 6]: 2.6 ± 0.6 µM; maximal fold induction [2, 4]: 11.8
26 | O=C(Nc1ccc(C(F)(F)F)cc1)NC1CCC(Oc2ccc(F)cc2)CC1 (centres unmarked) [Compound I-5p] | 2.8 ± 0.1 | 13.99 | 
27 | COc1cccc(NC(=O)NC2CCC(Oc3ccc(F)cc3)CC2)c1 (centres unmarked) [Compound I-8m] | 14 ± 1.3 | 3.81 | 
28 | COc1ccccc1NC(=O)NC1CCC(Oc2ccc(F)cc2)CC1 (centres unmarked) [Compound I-8o] | > 20 | 1.51 | 
29 | O=C(Nc1cccc([N+](=O)[O-])c1)NC1CCC(Oc2ccc(F)cc2)CC1 (centres unmarked) [Compound I-9m] | 6.7 ± 0.7 | 7.47 | 
30 | O=C(Nc1ccccc1[N+](=O)[O-])NC1CCC(Oc2ccc(F)cc2)CC1 (centres unmarked) [Compound I-9o] | 3.5 ± 0.3 | 2.23 | 
31 | CSc1cccc(NC(=O)NC2CCC(Oc3ccc(F)cc3)CC2)c1 (centres unmarked) [Compound I-10m] | 11.1 ± 1.1 | 6.67 | 
32 | COC(=O)c1ccccc1NC(=O)NC1CCC(Oc2ccc(F)cc2)CC1 (centres unmarked) [Compound I-11o, methyl 2-(3-(4-(4-fluorophenoxy)cyclohexyl)ureido)benzoate] |  |  | IC50 [1, 5]: 14.5 ± 1.6 µM; maximal fold induction [2, 4]: 3.79
33 | COC(=O)c1ccc(NC(=O)NC2CCC(Oc3ccc(F)cc3)CC2)cc1 (centres unmarked) [Compound I-11p] | 11.6 | 3.97 | 
34 | O=C(Nc1ccccc1C(=O)O)NC1CCC(Oc2ccc(F)cc2)CC1 (centres unmarked) [Compound I-12o, 2-(3-(4-(4-fluorophenoxy)cyclohexyl)ureido)benzoic acid] |  |  | IC50 [1, 5]: > 20 µM; maximal fold induction [2, 4]: 1.2
35 | O=C(Nc1ccccc1)NC1CCC(Oc2ccc(F)cc2)CC1 (centres unmarked) [Compound I-13] | 20 ± 2 | 1.65 | 
36 | O=C(Nc1cccc(C(F)(F)F)c1)NC1CCC(Oc2ccc(Cl)cc2)CC1 (centres unmarked) [Compound I-16, 1-(4-(4-Chlorophenoxy)cyclohexyl)-3-(3-(trifluoromethyl)phenyl)urea] |  |  | IC50 [1, 6]: 2 ± 0.1 µM; maximal fold induction [2, 7]: 6.73
37 | O=C(Nc1cccc(C(F)(F)F)c1)NC1CCC(Oc2ccccc2C(F)(F)F)CC1 (centres unmarked) [Compound I-19, 1-(4-(2-(Trifluoromethyl)phenoxy)cyclohexyl)-3-(3-(trifluoromethyl)phenyl)urea] |  |  | IC50 [1, 6]: 1.4 ± 0.3 µM; maximal fold induction [2, 7]: 15.7
38 | O=C(Nc1cccc(F)c1)N[C@H]1CC[C@H](OCc2c(F)cccc2F)CC1 [II-1m] |  |  | IC50 [1, 8]: > 20 µM; Emax (F/R) ([2]; 7.5 μM compound): 0.72 F/R; Emax (F/R) ([2]; 15 μM compound): 0.77 F/R; Emax (F/R) ([2]; 30 μM compound): 0.67 F/R
39 | O=C(Nc1ccccc1F)N[C@H]1CC[C@H](OCc2c(F)cccc2F)CC1 [II-1o] |  |  | IC50 [1, 8]: > 20 µM; Emax (F/R) ([2]; 7.5 μM compound): 0.96 F/R; Emax (F/R) ([2]; 15 μM compound): 0.98 F/R; Emax (F/R) ([2]; 30 μM compound): 0.89 F/R
40 | O=C(Nc1cccc(Cl)c1)N[C@H]1CC[C@H](OCc2c(F)cccc2F)CC1 [II-2m] |  |  | IC50 [1, 8]: > 20 µM; Emax (F/R) ([2]; 7.5 μM compound): 0.79 F/R; Emax (F/R) ([2]; 15 μM compound): 0.78 F/R; Emax (F/R) ([2]; 30 μM compound): 0.75 F/R
41 | O=C(Nc1ccccc1Cl)N[C@H]1CC[C@H](OCc2c(F)cccc2F)CC1 [II-2o] |  |  | IC50 [1, 8]: > 20 µM; Emax (F/R) ([2]; 7.5 μM compound): 0.81 F/R; Emax (F/R) ([2]; 15 μM compound): 0.69 F/R; Emax (F/R) ([2]; 30 μM compound): 0.81 F/R
42 | O=C(Nc1ccc(Cl)cc1)N[C@H]1CC[C@H](OCc2c(F)cccc2F)CC1 [II-2p] |  |  | IC50 [1, 8]: > 20 µM; Emax (F/R) ([2]; 7.5 μM compound): 0.95 F/R; Emax (F/R) ([2]; 15 μM compound): 0.96 F/R; Emax (F/R) ([2]; 30 μM compound): 0.74 F/R
